Results on six molecules are retold here after PMC7127208 (Bioorganic & Medicinal Chemistry, 2013).

The test system of data set [1] is Feline herpes virus. Kind of data set: Antiviral screening, Feline herpes virus in CRFK cells. Type of data set: cell-based. The note with it: read-out: EC50 Feline herpes virus.
In data set [2] the test system is Parainfluenza 3-virus. The experiment in a line: Antiviral screening, Parainfluenza 3-virus in MDCK cells. The class given is cell-based. The note with it: read-out: EC50 Parainfluenza 3-virus.
In data set [3] the test system is Reovirus-1. Kind of data set: Antiviral screening, Reovirus-1 in MDCK cells. The class given is cell-based. The note with it: read-out: EC50 Reovirus-1.
The test system of data set [4] is CEM, HeL, CRFK, HeLa, MDCK cells. The note with it: above mentioned cell lines.
In data set [5] the test system is FIV (feline immunodeficiency virus). The note with it: cited from earlier work.
Data set [6] relates to FIV. The experiment in a line: Anti-FIV activity in CrFK cells. Type of data set: cell-based, feline immunodeficiency virus.
For data set [7], the system named is HSV-1. Kind of data set: Antiviral activity against HSV-1. The class given is cell-based.
Data set [8] relates to HSV-2. Kind of data set: Antiviral activity against HSV-2. Type of data set: cell-based.
Data set [9] deals with Feline herpesvirus. The experiment in a line: Antiviral activity against Feline herpesvirus. The class given is cell-based.
In data set [10] the test system is VV. The experiment in a line: Antiviral activity against VV. The class given is cell-based.
Data set [11] has as its system HCMV. The experiment in a line: Antiviral activity against HCMV. The class given is cell-based.

As to `C[C@@H](O)CNc1nc(N)c2ncn(C[C@@H](C)O)c2n1` [compound 3, (R)-1-{6-Amino-2-[(R)-2-(hydroxypropyl)amino]-9H-purin-9-yl}propan-2-ol], the concentration for a half-maximal effect (EC50) in data set [1], in data set [2] and in [3] was more than 100 µg/mL in each case. In addition, the “MCC, minimum cytotoxicity concentration required to cause a microscopically detectable alteration of normal cell morphology” value (“MCC … of normal cell morphology” below) in [4] is more than 100 μg/mL.

Consider `C[C@@H](O)CNc1nc(N)nc2c1ncn2C[C@@H](C)O` [compound 4, (R)-1-{2-Amino-6-[((R)-2-hydroxypropyl)amino]-9H-purin-9-yl}propan-2-ol], for which the EC50 in [1], in data set [2] and in data set [3] was more than 100 µg/mL in each case. Besides, the “MCC … of normal cell morphology” value in [4] is reported as more than 100 μg/mL.

Turning to `C[C@H](Cn1cnc2c(NCP(=O)(O)O)nc(N)nc21)OCP(=O)(O)O` [compound 10, (R)-9-[2-(Phosphonomethoxy)propyl]-N^6-phosphonomethyl-2,6-diaminopurine], the EC50 in [1], in data set [2] and in [3] was more than 100 µg/mL in each case. In addition, the “MCC … of normal cell morphology” value in data set [4] is on record as more than 100 μg/mL.

With `C[C@H](Cn1cnc2c(N)nc(N)nc21)OCP(=O)(O)O` [compound 12, (R)-9-[2-(phosphonomethoxy)propyl]-2,6-diaminopurine], in [5], the “inhibition of FIV infections in cats” value is recorded as “very potent inhibitor”.

`CCCCCCCCCCCCCCCCOCCCOP(=O)([O-])CO[C@H](C)Cn1cnc2c(N)nc(N)nc21.[Na+]` [compound 14, Hexadecyloxypropyl ester of (R)-9-[2-(phosphonomethoxy)propyl]-2,6-diaminopurine, sodium salt]: the “fold more potent in inhibiting FIV replication compared to the parent molecule” value in data set [6] (in vitro, versus (R)-PMPDAP) is listed as 200 fold. In addition, the “activity against HSV-1” value in [7] was “No activity”. In data set [8], the “activity against HSV-2” value is recorded as “No activity”. For the same molecule, the “activity against Feline herpesvirus” value in data set [9] is recorded as “No activity”. For the same molecule, the “activity against VV” value in data set [10] is “No activity”. Moreover, the “activity against HCMV” value in [11] was “No activity”.

`CCOC(=O)[C@H](C)NP(=O)(CO[C@H](C)Cn1cnc2c(N)nc(N)nc21)N[C@@H](C)C(=O)OCC` [compound 15]: the “fold less active against FIV compared to the parent molecule” value in data set [6] amounted to 10 fold.
